Experimental data published in patent US20260378560A1, “APPROACHES TO DESIGNING AND PERFORMING COMPRESSED BIOLOGICAL EXPERIMENTS AND SYSTEMS FOR IMPLEMENTING THE SAME” (EXVIVO LABS INC., priority 2023, published 2026).
Where two headings read alike, the source gives them in different places.

Assays:
REH [1] = assay: Cell viability (CellTiter Glo), compressed perturbation pools with informed pool design, MAX-based deconvolution, REH;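 further: higher DRS means a larger drug effect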
Experimental: (§1) Total cell viability was measured for each sample using an ATP-based luminescence assay (i.e., CellTiter Glo). Each cancer drug was then screened at multiple concentrations ranging from one nM to ten μM in order to generate a dose-response curve and calculate a DRS for each cancer cell line.
(§2) Each cancer drug was cultured with target cells individually. At the end of the screen, samples were either analyzed individually or compressed into pools for analysis. The library was compressed alphabetically into ten cohorts, each of which contained seven cancer drugs present in three out of the seven pools, as shown in Table VII. Said another way, the screening platform 210 generated a “7 pick 3” compressed library by assigning the cancer drugs among different pools. […] The library was also compressed into ten cohorts with pools designed based on information known about each cancer drug, as shown in Table VIII. After cell viability measurement and DRS calculation, the DRS of each cancer drug in the samples generated based on the pools were deconvoluted and compared to the DRS for each cancer drug measured individually.
(§3) In parallel to the exemplary sample compression screen covered in Table VII, perturbations were compressed into pools and then screened. The pools were designed using drug class as a feature with two compression rules (or simply “rules”). The first rule required that drugs from the same class be separated into different cohorts (i.e., mutually exclusive groups of pools). […] A benefit of compressing perturbations is the ability to measure additive, antagonistic, and synergistic effects between drugs in the same pool. However, these effects can negatively impact deconvolution of individual drug effects. Therefore, combinations of drugs for which evidence of clinical toxicity exists can be assigned to different pools in accordance with an informed pooling operation. As new preclinical or clinical evidence of toxic combinations becomes available, the rules implemented by the screening platform 210—and more specifically, its algorithm for compressing members of a library—can be updated accordingly.
(§4) In MAX-based deconvolution, an assumption of neutrality between the compressed perturbations is made. In other words, the perturbation with the largest effect is assumed to be masking the effects, if any, of the other perturbations in the pool. For SUM- and MAX-based deconvolution, qualitative deconvolution is first performed to rank the perturbations in each pool based on size of expected effect. Qualitative deconvolution, as described above, ranks the perturbations in a pool from largest effect size to smallest effect size. The ranking is based on the overlap of each perturbation's unique subset of pools with the highest and lowest measured pools. The perturbation with the largest effect is expected to be present in the pools with the highest measured signal or corresponding metric (e.g., DRS), while the perturbation with the smallest effect is expected to be present in the pools with the lowest measured signal or corresponding metric (e.g., DRS).
(§5) For MAX-based deconvolution, the highest ranked perturbation in the rank order is first assigned an effect size based on the pool with the lowest measured signal or corresponding metric (e.g., DRS) that it is present in. Said another way, the screening platform 210 can identify the highest ranked perturbation in the rank order and then assign an effect size based on the measured signal or corresponding metric (e.g., DRS) of the “weakest” pool in which the highest ranked perturbation is included. The screening platform 210 can repeat this step for the next highest ranked perturbation, and so on until the measurements for each pool have been assigned to one of the perturbations. The effects for the remaining perturbations can be assigned a value of zero, since it is assumed that their effect is masked by the perturbation with the largest effect in each pool.

REH [2] = assay: Cell viability (CellTiter Glo), library of cancer drugs, individual or sample compression with randomized (alphabetical) pools, REH; format: cell-based
Experimental: as §1, §2
(§6) In SUM-based deconvolution, an assumption of additivity is used to quantify the individual effects of each perturbation on each target. Additivity implies that each perturbation effect on each target is positively contributing to the overall effect measured for that pool. This is an accurate assumption for certain experiments, such as when targets or samples are compressed. When targets are pooled—or when samples containing different targets are pooled—the effect of each perturbation on each individual target is diluted. In other words, each perturbation has an isolated effect on a target in culture, and the sum total of the isolated effects are measured when pooled. Therefore, SUM-based deconvolution breaks down the sum total measured for a pool and assigns estimated fractional effects to each compressed perturbation or target in the pool. The screening platform 210 used SUM-based deconvolution for all target and sample compression experiments described above.

MOLT-4 [3] = assay: Cell viability (CellTiter Glo), compressed perturbation pools with informed pool design, MAX-based deconvolution, MOLT-4;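 further: higher DRS means a larger drug effect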
Experimental: as §1, §2, §3, §4, §5

MOLT-4 [4] = assay: Cell viability (CellTiter Glo), library of cancer drugs, individual or sample compression with randomized (alphabetical) pools, MOLT-4; format: cell-based
Experimental: as §1, §2, §6

[5] = REH, None (measured individually), informed pool design table
[6] = REH, Samples, 7 Pick 3 informed perturbation pools
[7] = REH, None (measured individually)
[8] = REH, Samples, 7 Pick 3 randomized (alphabetical) sample pools
[9] = MOLT-4, None (measured individually), informed pool design table
[10] = MOLT-4, Samples, 7 Pick 3 informed perturbation pools
[11] = MOLT-4, None (measured individually)
[12] = MOLT-4, Samples, 7 Pick 3 randomized (alphabetical) sample pools

| Compound | DRS (REH [1]; [5]) | DRS from MAX-based deconvolution (REH [1]; [6]) | DRS (REH [2]; [7]) | DRS from deconvolution (REH [2]; [8]) | DRS (MOLT-4 [3]; [9]) | DRS from MAX-based deconvolution (MOLT-4 [3]; [10]) | DRS (MOLT-4 [4]; [11]) | DRS from deconvolution (MOLT-4 [4]; [12]) | DRS (REH [1]) | DRS from MAX-based deconvolution (REH [1]) | DRS (REH [2]) | DRS from deconvolution (REH [2]) | DRS (MOLT-4 [3]) | DRS from MAX-based deconvolution (MOLT-4 [3]) | DRS (MOLT-4 [4]) | DRS from deconvolution (MOLT-4 [4]) |
| --- | --- | --- | --- | --- | --- | --- | --- | --- | --- | --- | --- | --- | --- | --- | --- | --- |
| O=C(c1ccc(F)c(F)c1Nc1ccc(I)cc1F)N1CC(O)([C@@H]2CCCCN2)C1 [Cobimetinib] | 0.00 | 0.00 | 0.00 | 0.00 | 1.60 | 1.60 | 0.00 | 0.00 |  |  |  |  |  |  |  |  |
| C[C@H](Nc1ncnc2nc[nH]c12)c1cc2cccc(Cl)c2c(=O)n1-c1ccccc1 [Duvelisib] | 2.58 | 3.75 | 0.00 | 0.00 | 5.28 | 5.28 | 0.00 | 0.00 |  |  |  |  |  |  |  |  |
| CC(C)(O)CNc1nc(Nc2ccnc(C(F)(F)F)c2)nc(-c2cccc(C(F)(F)F)n2)n1 [Enasidenib] |  |  |  |  |  |  |  |  | 0.00 | 0.00 | 0.00 | 0.00 | 0.00 | 0.00 | 0.00 | 0.00 |
| COC(=O)N[C@@H](C)CNc1nccc(-c2cn(C(C)C)nc2-c2cc(Cl)cc(NS(C)(=O)=O)c2F)n1 [Encorafenib] | 0.70 | 0.00 | 1.84 | 2.10 | 4.30 | 0.00 | 0.24 | 0.21 |  |  |  |  |  |  |  |  |
| CN1CCN(c2ccc(C(=O)Nc3n[nH]c4ccc(Cc5cc(F)cc(F)c5)cc34)c(NC3CCOCC3)c2)CC1 [Entrectinib] | 16.20 | 18.94 | 0.00 | 0.00 | 18.70 | 21.41 | 0.00 | 0.00 |  |  |  |  |  |  |  |  |
| CNC(=O)c1ccc(N2C(=S)N(c3ccc(C#N)c(C(F)(F)F)c3)C(=O)C2(C)C)cc1F [Enzalutamide] | 27.70 | 31.61 | 0.00 | 0.00 | 25.00 | 28.24 | 0.00 | 0.00 |  |  |  |  |  |  |  |  |
| C=C1C[C@@H]2[C@H](CC[C@]3(C)C(=O)CC[C@@H]23)[C@@]2(C)C=CC(=O)C=C12 [Exemestane] | 1.84 | 0.00 | 0.00 | 0.00 | 1.04 | 0.00 | 0.00 | 0.00 |  |  |  |  |  |  |  |  |
| Cc1cnc(Nc2ccc(OCCN3CCCC3)cc2)nc1Nc1cccc(S(=O)(=O)NC(C)(C)C)c1 [Fedratinib] | 8.20 | 9.03 | 4.94 | 5.00 | 2.70 | 3.88 | 4.84 | 4.67 |  |  |  |  |  |  |  |  |
| C[C@]12CC[C@@H]3c4ccc(O)cc4C[C@@H](CCCCCCCCC[S+]([O-])CCCC(F)(F)C(F)(F)F)[C@H]3[C@@H]1CC[C@@H]2O (stereo partly shown) [Fulvestrant] | 0.00 | 0.00 | 0.21 | 0.00 | 0.00 | 0.00 | 0.01 | 0.00 |  |  |  |  |  |  |  |  |
| CCc1nc(C(N)=O)c(Nc2ccc(N3CCC(N4CCN(C)CC4)CC3)c(OC)c2)nc1NC1CCOCC1 [Gilteritinib] | 0.20 | 0.00 | 0.00 | 0.00 | 0.00 | 0.00 | 0.00 | 0.00 |  |  |  |  |  |  |  |  |
| CN1CC[C@@H](NC(=O)Nc2ccc(C#N)cc2)C[C@@H]1c1nc2ccccc2[nH]1 [Glasdegib] | 0.00 | 0.00 | 1.63 | 1.45 | 0.00 | 0.00 | 0.03 | 0.00 |  |  |  |  |  |  |  |  |
| C=CC(=O)N1CCC[C@@H](n2nc(-c3ccc(Oc4ccccc4)cc3)c3c(N)ncnc32)C1 [Ibrutinib] | 0.95 | 1.56 | 0.95 | 0.96 | 2.35 | 3.17 | 2.35 | 2.50 |  |  |  |  |  |  |  |  |
| CC(C)C[C@H](NC(=O)CNC(=O)c1cc(Cl)ccc1Cl)B(O)O [Ixazomib] | 0.00 | 0.00 | 15.29 | 15.74 | 0.00 | 0.00 | 13.99 | 14.23 |  |  |  |  |  |  |  |  |
| CS(=O)(=O)CCNCc1ccc(-c2ccc3ncnc(Nc4ccc(OCc5cccc(F)c5)c(Cl)c4)c3c2)o1 [Lapatinib] | 6.99 | 8.02 | 0.74 | 0.81 | 5.79 |  | 0.74 | 0.71 |  |  |  |  |  |  |  |  |
| O=C(Nc1cnn2ccc(N3CCC[C@@H]3c3cc(F)ccc3F)nc12)N1CC[C@H](O)C1 [Larotrectinib] | 0.74 | 0.00 | 0.00 | 0.00 | 0.74 | 0.00 | 0.00 | 0.00 |  |  |  |  |  |  |  |  |
| N#Cc1ccc(C(c2ccc(C#N)cc2)n2cncn2)cc1 [Letrozole] | 0.00 | 0.00 | 3.93 | 4.02 | 0.00 | 0.00 | 3.50 | 3.47 |  |  |  |  |  |  |  |  |
| C[C@H]1Oc2cc(cnc2N)-c2c(nn(C)c2C#N)CN(C)C(=O)c2ccc(F)cc21 [Lorlatinib] | 0.00 | 0.00 | 0.00 | 0.00 | 0.00 | 0.00 | 0.00 | 0.00 |  |  |  |  |  |  |  |  |
| Cc1cn(-c2cc(NC(=O)c3ccc(C)c(Nc4nccc(-c5cccnc5)n4)c3)cc(C(F)(F)F)c2)cn1 [Nilotinib] | 0.00 | 0.00 | 2.85 | 2.97 | 0.00 | 0.00 | 3.95 | 3.88 |  |  |  |  |  |  |  |  |
| O=C(c1cc(Cc2n[nH]c(=O)c3ccccc23)ccc1F)N1CCN(C(=O)C2CC2)CC1 [Olaparib] | 1.84 | 0.00 | 2.58 | 2.61 | 0.24 | 0.00 | 5.28 | 5.41 |  |  |  |  |  |  |  |  |
